In patent US12180189B2, “Proteostasis regulators” (Kineta, Inc., priority 2011, dated 2024) one finds IC50 data, which are given here for 31 compounds.

The experiment concerns the target USP14 (Homo sapiens, UniProt P54578). Description: USP14 inhibition (methodology of B. H. Lee et al. Nature 2010). The experiment is classed as biochemical. To be noted: average value from three experimental determinations. On the procedure:
Known USP14 inhibitor IU1 (1-(1-(4-fluorophenyl)-2,5-dimethyl-1H-pyrrol-3-yl)-2-(pyrrolidin-1-yl)ethanone; B. H. Lee et al. Nature 2010, 467 (9), 179) was used as a comparative reference agent. The IC50 values in the Table below represent the average value from three experimental determinations. In the table below, “A” represents an IC50 of 0 to 5 uM, “B” represents an IC50 of 5 to 10 uM, and “C” represents and IC50 of greater than 10 uM.

Chain of USP14 (P54578 whole entry): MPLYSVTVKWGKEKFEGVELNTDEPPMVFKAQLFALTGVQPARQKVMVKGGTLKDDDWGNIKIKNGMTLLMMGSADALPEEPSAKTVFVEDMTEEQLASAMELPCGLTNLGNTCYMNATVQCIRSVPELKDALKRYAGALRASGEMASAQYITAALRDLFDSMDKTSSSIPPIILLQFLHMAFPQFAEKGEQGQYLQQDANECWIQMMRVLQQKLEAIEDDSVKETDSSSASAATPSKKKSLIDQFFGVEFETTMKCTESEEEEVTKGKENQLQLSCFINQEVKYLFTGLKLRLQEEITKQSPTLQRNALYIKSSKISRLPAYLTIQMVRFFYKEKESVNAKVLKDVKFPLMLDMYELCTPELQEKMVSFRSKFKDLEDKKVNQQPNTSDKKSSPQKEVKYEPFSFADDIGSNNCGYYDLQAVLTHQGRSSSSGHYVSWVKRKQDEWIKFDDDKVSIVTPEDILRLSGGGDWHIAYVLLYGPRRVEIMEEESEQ
Chain of USP14 (Q13200 whole entry partner): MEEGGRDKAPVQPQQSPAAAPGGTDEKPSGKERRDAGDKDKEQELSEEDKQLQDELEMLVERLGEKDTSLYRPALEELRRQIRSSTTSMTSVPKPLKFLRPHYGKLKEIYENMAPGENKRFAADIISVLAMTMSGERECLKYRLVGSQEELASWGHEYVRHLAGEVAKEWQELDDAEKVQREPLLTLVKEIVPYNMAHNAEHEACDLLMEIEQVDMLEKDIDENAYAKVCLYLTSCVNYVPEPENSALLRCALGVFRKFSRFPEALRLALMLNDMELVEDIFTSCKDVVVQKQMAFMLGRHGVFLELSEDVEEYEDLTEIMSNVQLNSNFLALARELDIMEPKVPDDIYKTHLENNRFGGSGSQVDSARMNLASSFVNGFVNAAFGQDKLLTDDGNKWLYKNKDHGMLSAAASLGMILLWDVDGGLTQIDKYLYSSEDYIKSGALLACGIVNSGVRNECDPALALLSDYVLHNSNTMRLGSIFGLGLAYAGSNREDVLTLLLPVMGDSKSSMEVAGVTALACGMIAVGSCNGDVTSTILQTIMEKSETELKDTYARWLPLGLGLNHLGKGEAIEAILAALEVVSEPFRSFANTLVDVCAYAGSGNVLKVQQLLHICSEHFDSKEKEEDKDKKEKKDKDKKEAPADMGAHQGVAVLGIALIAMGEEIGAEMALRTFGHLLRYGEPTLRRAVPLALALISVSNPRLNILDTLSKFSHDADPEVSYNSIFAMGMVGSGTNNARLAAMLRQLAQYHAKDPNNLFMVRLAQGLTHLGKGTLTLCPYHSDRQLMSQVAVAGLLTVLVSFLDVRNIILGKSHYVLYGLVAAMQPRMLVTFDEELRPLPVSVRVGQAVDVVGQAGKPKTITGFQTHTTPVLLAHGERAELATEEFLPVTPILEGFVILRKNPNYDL
Chain of USP14 (P35998 whole entry partner): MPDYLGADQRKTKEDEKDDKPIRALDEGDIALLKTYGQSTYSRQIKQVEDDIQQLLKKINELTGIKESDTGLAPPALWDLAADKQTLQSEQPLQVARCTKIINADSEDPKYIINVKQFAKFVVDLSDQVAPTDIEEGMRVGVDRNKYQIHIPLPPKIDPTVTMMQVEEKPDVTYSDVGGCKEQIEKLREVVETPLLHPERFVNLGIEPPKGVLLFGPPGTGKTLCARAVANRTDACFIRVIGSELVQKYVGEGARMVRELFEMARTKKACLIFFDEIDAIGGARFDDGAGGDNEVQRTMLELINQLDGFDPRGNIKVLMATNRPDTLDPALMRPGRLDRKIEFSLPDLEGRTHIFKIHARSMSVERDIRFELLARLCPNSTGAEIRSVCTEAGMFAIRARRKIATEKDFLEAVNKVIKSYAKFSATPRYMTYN

As a reminder, the IC50 is the point on the concentration scale where inhibition reaches its midpoint. Higher therefore signals weaker potency in that assay. `Cc1cc(C(=O)CC2CCCC2)c(C)n1-c1ccc(Cl)cc1` [Compound A1, 1-[1-(4-Chloro-phenyl)-2,5-dimethyl-1H-pyrrol-3-yl]-2-cyclopentyl-ethanone] had a concentration for half-maximal inhibition (IC50) of more than 10 µM.
In turn, `Cc1cc(C(=O)CC2CCCCC2)c(C)n1-c1ccc(Cl)cc1` [Compound A2, 1-[1-(4-Chloro-phenyl)-2,5-dimethyl-1H-pyrrol-3-yl]-2cyclohexyl-ethanone] yielded an IC50 of more than 10 µM.
`Cc1cc(C(=O)C(F)F)c(C)n1-c1ccc(Cl)cc1` [Compound A3, 1-(1-(4-chlorophenyl)-2,5-dimethyl-1H-pyrrol-3-yl)-2,2-difluoroethanone] had an IC50 of more than 10 µM.
Turning to `Cc1cc(C(=O)CC(F)(F)F)c(C)n1-c1ccc(Cl)cc1` [Compound A4, 1-(1-(4-chlorophenyl)-2,5-dimethyl-1H-pyrrol-3-yl)-3,3,3-trifluoropropan-1-one], the IC50 is more than 10 µM.
The compound `Cc1cc(C(=O)C(=O)O)c(C)n1-c1ccc(Cl)cc1` [Compound A5, 2-(1-(4-chlorophenyl)-2,5-dimethyl-1H-pyrrol-3-yl)-2-oxoacetic acid] gave a half-inhibitory concentration (IC50) of more than 10 µM.
The result for `Cc1cc(C(=O)C(=O)N2CCC(F)CC2)c(C)n1-c1ccc(Cl)cc1` [Compound A7, 1-(1-(4-chlorophenyl)-2,5-dimethyl-1H-pyrrol-3-yl)-2-(4-fluoropiperidin-1-yl)ethane-1,2-dione] reads more than 10 µM; that for `Cc1cc(C(=O)CCl)c(C)n1-c1ccc(Cl)cc1` [Compound A8, 2-chloro-1-(1-(4-chlorophenyl)-2,5-dimethyl-1H-pyrrol-3-yl)ethanone], more than 10 µM; that for `Cc1cc(C(=O)Cn2cccc2)c(C)n1-c1ccc(Cl)cc1` [Compound A9, 1-[1-(4-Chloro-phenyl)-2,5-dimethyl-1H-pyrrol-3-yl]-2-pyrrol-1-yl-ethanone], more than 10 µM.
`Cc1cc(C(=O)Cn2ccnc2)c(C)n1-c1ccc(Cl)cc1` [Compound A10, 1-[1-(4-Chloro-phenyl)-2,5-dimethyl-1H-pyrrol-3-yl]-2-imidazol-1-yl-ethanone] gave a half-inhibitory concentration (IC50) of more than 10 µM.
In turn, `Cc1cc(C(=O)CN2CCCCC2)c(C)n1C` [Compound A11, 2-(piperidin-1-yl)-1-(1,2,5-trimethyl-1H-pyrrol-3-yl)ethanone] registered an IC50 of more than 10 µM.
The result for `Cc1cc(C(=O)CN2CCCC2)c(C)n1C` [Compound A12, 2-(pyrrolidin-1-yl)-1-(1,2,5-trimethyl-1H-pyrrol-3-yl)ethanone] reads more than 10 µM.
For `Cc1c(C(=O)CN2CCCC2)cnn1-c1ccc(Cl)cc1` [Compound A14, 1-[1-(4-Chloro-phenyl)-5-methyl-1H-pyrazol-4-yl]-2-pyrrolidin-1-yl-ethanone], the IC50 was less than 5 µM.
In the case of `Cc1nn(-c2ccc(Cl)cc2)c(C)c1C(=O)CN1CCCCC1` [Compound A18, 1-[1-(4-Chloro-phenyl)-3,5-dimethyl-1H-pyrazol-4-yl]-2-piperidin-1-yl-ethanone], the IC50 was 5 to 10 µM.
`Cc1nn(-c2ccc(Cl)cc2)c(C)c1C(=O)CN1CCCC1` [Compound A19, 1-[1-(4-Chloro-phenyl)-3,5-dimethyl-1H-pyrazol-4-yl]-2-Pyrrolidine-1-yl-ethanone] displayed an IC50 of less than 5 µM.
With `Cc1nn(-c2ccc(Cl)cc2)c(C)c1C(=O)CN(C)C1CC1` [Compound A20, 1-[1-(4-Chloro-phenyl)-3,5-dimethyl-1H-pyrazol-4-yl]-2-(Cyclopropyl-methyl-amino)-ethanone], the half-inhibitory concentration (IC50) was more than 10 µM.
Compound `Cc1nn(-c2ccc(Cl)cc2)c(C)c1C(=O)CC1CCCCC1` [Compound A21, 1-(1-(4-chlorophenyl)-3,5-dimethyl-1H-pyrazol-4-yl)-2-cyclohexylethanone] came in with a half-maximal inhibitory concentration (IC50) of more than 10 µM.
The result for `O=C(CN1CCCCC1)c1cnn(-c2ccc(Cl)cc2)c1` [Compound A22, 1-[1-(4-Chloro-phenyl)-1H-pyrazol-4-yl]-2-piperidin-1-yl-ethanone] reads more than 10 µM.
Take `O=C(CN1CCCC1)c1cnn(-c2ccc(Cl)cc2)c1` [Compound A23, 1-[1-(4-Chloro-phenyl)-1H-pyrazol-4-yl]-2-pyrrolidin-1-yl-ethanone]: the half-inhibitory concentration (IC50) was more than 10 µM.
In the case of `CN(CC(=O)c1cnn(-c2ccc(Cl)cc2)c1)C1CC1` [Compound A24, 1-[1-(4-Chloro-phenyl)-1H-pyrazol-4-yl]-2-(cyclopropyl-methyl-amino)-ethanone], the half-maximal inhibitory concentration (IC50) was more than 10 µM.
The compound `Cc1oc(-c2ccc(Cl)cc2)nc1C(=O)CN1CCCCC1` [Compound A25, 1-[2-(4-Chloro-phenyl)-5-methyl-oxazol-4-yl]-2-piperidin-1-yl-ethanone] registered a concentration for half-maximal inhibition (IC50) of more than 10 µM.
The result for `O=C(CN1CCCCC1)c1cc(-c2ccc(Cl)cc2)ns1` [Compound A26] reads more than 10 µM; that for `Cc1sc(-c2ccc(Cl)cc2)cc1C(=O)CN1CCCCC1` [Compound A27, 1-(5-(4-chlorophenyl)-2-methylthiophen-3-yl)-2-(piperidin-1-yl)ethanone], more than 10 µM; that for `Cc1sc(-c2ccc(Cl)cc2)cc1C(=O)CN1CCC(F)CC1` [Compound A28, 1-(5-(4-chlorophenyl)-2-methylthiophen-3-yl)-2-(4-fluoropiperidin-1-yl)ethanone], more than 10 µM.
Take `Cc1sc(-c2ccc(Cl)cc2)cc1C(=O)CN1CCC(O)CC1` [Compound A29, 1-(5-(4-chlorophenyl)-2-methylthiophen-3-yl)-2-(4-hydroxypiperidin-1-yl)ethanone]: the half-maximal inhibitory concentration (IC50) is more than 10 µM.
Turning to `Cc1c(C(=O)CN2CCCC2)nnn1-c1ccc(F)cc1` [Compound A30, 1-(1-(4-fluorophenyl)-5-methyl-1H-1,2,3-triazol-4-yl)-2-(pyrrolidin-1-yl)ethanone], the concentration for half-maximal inhibition (IC50) is more than 10 µM.
For `O=C(CN1CCCC1)N1CCN(c2ccc(Cl)cc2)CC1` [Compound A31, 1-(4-(4-chlorophenyl)piperazin-1-yl)-2-(pyrrolidin-1-yl)ethanone], the IC50 was more than 10 µM.
The result for `O=C(CN1CCCCC1)N1CCN(c2ccc(F)cc2)CC1` [Compound A32, 1-(4-(4-fluorophenyl)piperazin-1-yl)-2-(piperidin-1-yl)ethanone] reads more than 10 µM; that for `Cc1cc(C(=O)C(C)N2CCC(C(N)=O)CC2)c(C)n1-c1ccc(Cl)cc1` (stereo not shown) [Compound A44], more than 10 µM.
On to `CNC(=O)C1CCN(C(C)C(=O)c2cc(C)n(-c3ccc(Cl)cc3)c2C)CC1` (stereo not shown) [Compound A45], for which the IC50 was more than 10 µM.
In turn, `COC(=O)C1CCN(C(C)C(=O)c2cc(C)n(-c3ccc(Cl)cc3)c2C)CC1` (stereo not shown) [Compound A46] showed a half-inhibitory concentration (IC50) of more than 10 µM.
Turning to `Cc1cc(C#N)c(C)n1-c1ccc(Cl)cc1` [Compound A47], the IC50 is more than 10 µM.
